Data reported in patent publication US8354430B2, “Monohydrochloride salt of 1-[3-[3-(4-chlorophenyl) propoxy]propyl]-piperidine” (priority 2005, dated 2013).
Several values for one entry are separate records, joined by “and”; a condition that tells them apart may be missing. Equal values may be shown once. Entries after “also recorded” stand apart in the source; their conditions may differ.

Assays:
human H3R [1] = molecular target: T1, human H3R (Homo sapiens, UniProt Q9Y5N1); test: [35S]GTPγS specific binding to membranes of CHO cells expressing the human H3R; format: biochemical; design: expressed in transfected cells; host or cells: CHO cells
T1 sequence (Q9Y5N1 whole entry): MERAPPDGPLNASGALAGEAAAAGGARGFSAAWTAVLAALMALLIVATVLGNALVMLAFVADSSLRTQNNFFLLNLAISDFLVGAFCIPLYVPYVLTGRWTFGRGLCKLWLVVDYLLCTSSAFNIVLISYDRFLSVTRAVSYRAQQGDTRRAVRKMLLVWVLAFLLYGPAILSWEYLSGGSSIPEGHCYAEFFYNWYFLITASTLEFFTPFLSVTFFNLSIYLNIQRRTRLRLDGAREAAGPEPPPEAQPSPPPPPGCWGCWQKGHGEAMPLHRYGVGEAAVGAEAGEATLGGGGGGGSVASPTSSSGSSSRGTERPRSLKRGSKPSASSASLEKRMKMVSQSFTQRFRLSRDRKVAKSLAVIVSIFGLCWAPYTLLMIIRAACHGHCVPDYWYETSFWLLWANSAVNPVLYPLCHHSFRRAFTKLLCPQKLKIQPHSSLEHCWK

mice [2] = test: Acute toxicity in mouse; format: in vivo; settings: for no-effect dose: mouse, in vivo
cats = test: Sleep-wake cycle study in cats (EEG/EMG); format: in vivo, cat
Protocol: Animals were chronically implanted with cortical and muscle electrodes to record EEG and EMG respectively, to allow monitoring their sleep-wake cycle. After recovery from surgery, animals were housed individually in a sound-proof recorded room maintaining at appropriate ambient temperature on a 12 h light/dark cycle. Polygraphic recordings were performed during 4 days to collect reference qualitative and quantitative data of sleep-wake control in each individual. Then, pharmacological evaluation was performed over 24 h sessions and analyzed by successive 30 sec epochs. Wakefulness and sleep states were identified as previously described for cats [Petitjean et al., Brain Res., 1975, 88: 439-53] and mice [[…] and Bugat, Brain Res., 1974, 69: 315-30]. Polygraphic recordings were started 7 days after surgery. Sleep-wake recording criteria included wakefulness (W), light slow wave sleep (SWS1), deep […]2) and paradoxical sleep (PS). Spectral analysis of EEG was performed by Fast-Fourier Transform in the frequency bands 0.8-2.5 Hz ([delta] slow waves), 8-15 Hz (spindles) and 20-45 Hz ([beta] and [gamma] rapid waves).

[3] = Genotoxicity in vitro or in vivo
human H3R [4] = molecular target: T1, human H3R; test: Histamine H3 receptor binding, recombinant human H3R expressed in rat glioma C6 cells; design: expressed in transfected cells; host or cells: various mammalian cells (the earlier reading names rat glioma C6)
Human H1R = Human H1R (Homo sapiens, UniProt P35367); test: Specific [3H]mepyramine binding at recombinant human H1 receptors expressed in HEK293 cells; settings: read-out: Ki or IC50, Human H1R
Sequence of Human H1R (P35367 whole entry): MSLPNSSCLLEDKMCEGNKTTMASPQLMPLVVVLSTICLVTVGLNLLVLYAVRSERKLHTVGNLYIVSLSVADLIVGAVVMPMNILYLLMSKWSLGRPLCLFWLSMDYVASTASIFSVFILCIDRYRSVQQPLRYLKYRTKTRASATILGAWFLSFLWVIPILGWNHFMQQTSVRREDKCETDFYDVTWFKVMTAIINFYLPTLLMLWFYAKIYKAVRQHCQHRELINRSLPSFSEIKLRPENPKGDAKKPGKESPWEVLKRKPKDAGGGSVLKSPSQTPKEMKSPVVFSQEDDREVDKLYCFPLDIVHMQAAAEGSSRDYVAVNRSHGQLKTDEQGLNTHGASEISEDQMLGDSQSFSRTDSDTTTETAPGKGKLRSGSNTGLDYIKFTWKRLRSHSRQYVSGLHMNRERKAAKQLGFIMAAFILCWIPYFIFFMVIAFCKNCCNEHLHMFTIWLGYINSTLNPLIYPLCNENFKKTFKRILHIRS

mice [5] = test: Electroshock in mice (maximal electroshock seizure model); format: in vivo, mouse; settings: 100 mg/kg, p.o.; test 60 min after dosing
volunteers [6] = test: Phase I study of subjective satiety, interaction with olanzapine; format: in vivo, human
Protocol: A single-center, open-label, placebo-controlled phase I study was performed to evaluate the subjective satiety in 6 volunteers. The volunteers enrolled in the study underwent five single day administration periods.

volunteers [7] = test: Single ascending dose EEG, psychometric and vigilance study in volunteers; format: in vivo, human
Protocol: A single-center, double-blind, randomized, placebo-controlled, single ascending doses, electroencephalographic study was performed in 36 volunteers. Subjects were consecutively enrolled in groups 1 to 6 (1, 5, 10, 20, 40 or 60 mg). All subjects of each dose group were randomly assigned to receive either 1-[3-[3-(4-chlorophenyl) propoxy]propyl]-piperidine monohydrochloride or placebo, in such a way that 5 subjects received the product and one subject received placebo.
From the EEG spectral analysis performed before treatment, the study subjects could be stratified as microvolted (66%) and normo or grandvolted (33%). The distribution between those subjects with 30-40% slow activity and 20-25% rapid activity (microvolted), and those with 10% slow activity (normovolted) or 60-80% of [alpha]-activity (grandvolted), explains that before drug administration significant differences were elicited for 20-30 Hz and 30-40 Hz activities.

Mouse Brain native H3R = molecular target: T2, Mouse Brain native H3R (Mus musculus, UniProt P58406); test: Histamine H3 receptor binding, mouse brain cortex membranes
T2 construct: was performed on mouse brain cortex membranes; from tissue; host or cells: mouse brain cortex membranes
T2 sequence (P58406 whole entry): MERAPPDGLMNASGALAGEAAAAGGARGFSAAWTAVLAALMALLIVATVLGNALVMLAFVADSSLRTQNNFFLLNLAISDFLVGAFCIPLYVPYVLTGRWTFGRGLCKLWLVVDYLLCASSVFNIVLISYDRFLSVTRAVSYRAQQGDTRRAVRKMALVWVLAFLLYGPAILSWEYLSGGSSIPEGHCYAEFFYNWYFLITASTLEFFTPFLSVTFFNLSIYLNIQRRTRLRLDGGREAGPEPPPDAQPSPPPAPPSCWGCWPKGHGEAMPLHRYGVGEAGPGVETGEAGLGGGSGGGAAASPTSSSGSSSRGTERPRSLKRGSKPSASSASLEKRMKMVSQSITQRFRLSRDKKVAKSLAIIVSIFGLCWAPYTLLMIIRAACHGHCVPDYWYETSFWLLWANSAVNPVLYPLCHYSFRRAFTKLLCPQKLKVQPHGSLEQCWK

epileptic patients = test: Photo paroxysmal response (PPR) to intermittent photic stimulation in photosensitive epileptic patients, single-blind single dose; format: in vivo, human; settings: for Delay of apparition / Duration of effect / Suppression of PPR: individual patients
Description: Acta Neurol. […] Unlike most other epilepsies, photosensitive epilepsy is a reflex epilepsy and epileptiform discharges can be evoked at any time by IPS in the laboratory. By determination of both upper and lower sensitivity limits (frequencies per flash) a so-called photosensitivity range can be determined. The range is related to liability of seizures in daily life of the patient. This photosensitivity range is relatively stable within a patient and can be diminished or abolished by antiepileptic medication. […] Twelve patients have been enrolled. Four patients received the dose of 20 mg. […] Four patients received the dose of 40 mg.

rat H3R = molecular target: T3, rat H3R (Rattus norvegicus, UniProt Q9QYN8); test: A23187-evoked [3H]arachidonic acid release from CHO cells expressing rat H3R; format: cell-based; settings: 1 μM, rat H3R 300-400 fmol/mg protein
T3 construct: expressed in transfected cells; host or cells: CHO cells
T3 sequence (Q9QYN8 whole entry): as the sequence (P58406 whole entry) above, with A15T, T286A, G290A, H387R, V389I counted along it

[8] = two hours after single oral 40 mg and 60 mg
[9] = 40 mg single dose, monohydrochloride
[10] = 60 mg single dose, monohydrochloride

## Cl.Clc1ccc(CCCOCCCN2CCCCC2)cc1 [1-[3-[3-(4-chlorophenyl)propoxy]propyl]-piperidine monohydrochloride]
Human H3R [1]; 10 nM, receptor level 1000-1100 fmol/mg protein
  decrease in [35S]GTPγS specific binding: 22%
Human H3R [1]; receptor level 410 fmol/mg protein
  maximal decrease of specific binding of [35S]GTPγS: 25%
Mice [2]; mice
  maximum non lethal dose: 100 mg/kg
Mice [2]; mice, i.v.
  minimum lethal dose: 10 mg/kg
Mice [2]; mice, p.o.
  minimum lethal dose: 150 mg/kg
Mice [2]; iv
  no-effect dose: > 5 mg/kg
Mice [2]; po
  no-effect dose: > 30 mg/kg
cats; 10 mg/kg oral
  time animals almost permanently wakeful: 6 to 12 h
cats; 10 mg/kg oral, 6 h recording period
  increase in W duration: 79%
cats; oral
  animal behavior after treatment: No major change in the animal behavior
cats; oral, 5 or 10 mg/kg
  awakening (W) at the expense of SWS and PS: dose-dependent increase in awakening
[3]
  genotoxicity: not to be genotoxic in vitro or in vivo
Human H3R [4]
  difference between the affinity at H3R and at other histamine receptors: three orders of magnitude
Human H3R [4]; same test system
  potency at the human H3R as compared to the mouse H3R: about 6 times
physchem; pH 4.5, aqueous buffer
  solubility: > 1000 mg/mL
physchem; pH 7.4, aqueous buffer
  solubility: > 1000 mg/mL
physchem; water
  solubility: > 1000 mg/mL
Human H1R
  Ki: 1140 nM
Mice [5]
  protection in the maximal electroshock seizure model: complete protection
Volunteers [6]; 60 mg
  subjective satiety versus placebo: significantly increased
Volunteers [6]; 60 mg + olanzapine 5 mg
  subjective satiety, association with olanzapine: able to counteract the effect of olanzapine leading to subjective satiety superimposable to placebo
Volunteers [7]; single 60 mg
  flicker, fusion and flicker-fusion thresholds (CFF) vs placebo: higher
Volunteers [7]; single doses 1-60 mg
  ARCI 49: no trend or statistically significant drug effect
  self-perception of sleep (LEEDS), alertness, contentedness and calmness (Bond-Lader VAS), choice reaction time (CRT): no statistically significant drug effect
Volunteers [7]; [8]
  EEG rapid activity (20-30 Hz anterior leads, 16 to 40 Hz posterior leads): statistically significant increase of rapid activity
  median peak position (MPP) on the frequency axis: from 10 to 15-17 Hz and from 11 to 13-15 Hz
Mouse Brain native H3R; radioligand [3H](R)α-MeHA
  Ki: 5.7 ± 0.2 nM
Mouse Brain native H3R; radioligand [125I]iodoproxyfan
  Ki: 14 ± 0.1 nM
Epileptic patients; 20 mg single dose
  Delay of apparition: 2 h
  Duration of effect: 6 h
Epileptic patients; 20 mg single dose, monohydrochloride
  Suppression of PPR: No (3×) and Total
Epileptic patients; [9]
  Delay of apparition: <1 hour hours and 2 hours
  Duration of effect: >8 h and 26 h
  Suppression of PPR: No (2×) and Total and Partial
Epileptic patients; [10]
  Delay of apparition: 2 hours and <1 hour hours (3×)
  Duration of effect: >8 hours (2×) and >36 hours and 26 hours
  Suppression of PPR: Partial; also recorded: Total
Epileptic patients; 60 mg, four patients
  clinical response: clinical response in all four patients
Epileptic patients; 20-60 mg, overall
  appearance of effect post administration: 1 to 2 h
Rat H3R
  decrease of the A23187-evoked [3H]AA release: 40%
